{"source": "patent US20080306037A1", "about": "“Product for Use in the Prevention and Treatment of Cardiovascular Diseases, Cancer and Chronic Inflammatory Diseases” (priority 2005, published 2008)", "system": "NF-kB transcription factor", "assay": "Luciferase trial: inhibition of NF-kB activation by TNFα in 5.1 linfoid cells (Jurkat clone, HIV-LTR luciferase)", "format": "cell-based", "settings": "concentration 125 μg/ml, 30 min pre-incubation, TNFα 2 ng/ml 6 hours", "description": "Cells. A cellular line 5.1, that is a clone derived from Jurkat stably transfected with a plasmid that contains the gene of the luciferase channelled by the HIV-LTR promoter, an exponential growth is maintained in a RPMI 1640 medium supplemented with a 10% of an foetal bovine serum deactivated by heat, 2 mM of L-glutamine, 1 mM HEPES, antibiotics and 200 μg/ml of G418. Luciferase Trial. […] Next, the cells were damaged in 25 mM tris-phosphate pH 7,8, 8 mM MgCl2 1 mM DTT, 1% Triton X-100, y 7% glycerol. The luciferase activity was measured using Autolumat LB 9501 following the instructions of the luciferase trial kit and the protein concentration was measured by the Bradford method. In order eliminate the background noise caused by the lysis solution, this value was deducted in each value of the experiment and the activation was expressed as proportional induction compared to the untreated cells. Cells. The 5.1 cellular line was used, as and how described in example 1. Luciferase Trial. The 5.1 cellular line was pre-incubated for 30 minutes with oleic acid in the concentrations as stated, followed by stimulation with TNFα (2 ng/ml) for 6 hours. The NF-kB transcriptional activity was measured in the same way as in example 1. Cells. The 5.1 cellular line was used, as and how described in example 1. Luciferase Trial. […] The NF-kB transcriptional activity was measured in the same way as in example 1.", "data": [{"smiles": "CCCCCCCC/C=C\\CCCCCCCC(=O)O", "note": "[oleic acid]", "values": [{"measurement": "activation index (NF-kB transcription factor activation, luciferase, proportional induction compared to untreated cells)", "value": "7-8"}]}]}
